Molecular target: T1, hDMT1 (SLC11A2) (Homo sapiens, UniProt P49281)
T1 construct: DsRED; expressed in transfected cells
T1 sequence (P49281 1-568): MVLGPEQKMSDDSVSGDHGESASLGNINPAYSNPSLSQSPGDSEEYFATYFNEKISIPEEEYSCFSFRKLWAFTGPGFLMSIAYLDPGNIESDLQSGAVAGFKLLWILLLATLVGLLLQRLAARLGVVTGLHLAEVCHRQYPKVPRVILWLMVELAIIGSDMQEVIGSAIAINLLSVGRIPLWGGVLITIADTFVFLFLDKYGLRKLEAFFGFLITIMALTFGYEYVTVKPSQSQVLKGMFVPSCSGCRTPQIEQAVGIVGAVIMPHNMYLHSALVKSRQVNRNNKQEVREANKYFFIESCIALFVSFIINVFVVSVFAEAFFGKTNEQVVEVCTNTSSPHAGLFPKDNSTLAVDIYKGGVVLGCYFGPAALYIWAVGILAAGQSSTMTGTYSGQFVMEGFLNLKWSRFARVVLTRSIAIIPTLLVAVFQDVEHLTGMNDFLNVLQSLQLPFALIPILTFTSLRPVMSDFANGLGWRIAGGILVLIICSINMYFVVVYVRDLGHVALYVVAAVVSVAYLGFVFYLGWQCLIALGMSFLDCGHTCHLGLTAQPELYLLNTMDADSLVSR
Assay: radioactive iron uptake assay in HEK293 cells stably overexpressing hDMT1
Assay type: cell-based
Conditions: for inhibition at 10 µM: HEK293, 10 μM compound, radioactive iron uptake, pH 5.5; for Ligand efficiency: from IC50 of radioactive iron uptake in HEK293-hDMT1; for IC50: radioactive iron 1 μM, 15 min incubation, extracellular pH 5.5, HEK293 stably overexpressing hDMT1

| SMILES | inhibition at 10 µM [%] | Ligand efficiency | IC50 [µM] |
| --- | --- | --- | --- |
| Cc1cc(=O)[nH]c(-n2nc(C)c(-c3ccccc3)c2C)n1 [Compound 8] | < 20 | – | – |
| Cc1cc(=O)[nH]c(-n2nc3c(c2C)CNCC3)n1 [Compound 15] | < 20 | – | – |
| Cc1cc(C)c(CSC(=N)N)c(C)c1CSC(=N)N [Compound 2, reference compound] | – | 0.25 | – |
| Cc1cc(=O)[nH]c(-n2[nH]c(C)c(Cc3ccccc3)c2=O)n1 [Compound 22] | < 20 | – | – |
| Cc1cc(C)n(-c2nc(C)c(C)c(O)n2)n1 [Compound 19] | – | 0.43 | 12.5 ± 0.3 |
| Cc1cc(=O)[nH]c(-n2nc(C)c(C)c2C)n1 [Compound 6] | – | 0.44 | 10 ± 0.4 |
| Cc1cc(=O)[nH]c(-n2nc3c4c2CCCC4CCC3)n1 (stereo not shown) [Compound 18] | – | 0.42 | 0.94 ± 0.2 |
| CCc1cc(=O)[nH]c(-n2[nH]c(C)cc2=O)n1 [Compound 24] | < 20 | – | – |
| CCc1c(C)nn(-c2nc(C)cc(=O)[nH]2)c1C [Compound 7] | – | 0.40 | 4.2 ± 0.4 |
| CCc1cc(CC)n(-c2nc(C)cc(=O)[nH]2)n1 [Compound 16] | – | 0.45 | 3.8 ± 0.2 |
| CCc1cc(=O)n(-c2nc(C)cc(=O)[nH]2)[nH]1 [Compound 21] | < 20 | – | – |
| Cc1cc(=O)[nH]c(-n2nc(C(C)(C)C)cc2C)n1 [Compound 10] | < 20 | – | – |
| Cc1cc(C)nc(-n2nc(C)cc2C)n1 [Compound 20] | < 20 | – | – |
| Cc1cc(=O)[nH]c(-n2nc(C)c(Cc3ccccc3)c2C)n1 [Compound 9] | < 20 | – | – |
| Cc1cc(=O)[nH]c(-n2nc3c(c2C)CCC3)n1 [Compound 12] | < 20 | – | – |
| Cc1cc(=O)[nH]c(-n2nc(-c3ccccc3)cc2C)n1 [Compound 11] | < 20 | – | – |
| CCc1c2c(nn1-c1nc(C)cc(=O)[nH]1)CCCC2 [Compound 17] | – | 0.42 | 2.26 ± 0.3 |
| CCOC(=O)c1cnc(-n2[nH]c(C)cc2=O)[nH]c1=O [Compound 25] | < 20 | – | – |
| Cc1cc(=O)[nH]c(-n2nc3c(c2C)COCC3)n1 [Compound 14] | < 20 | – | – |

Reference: article PMC7649969, “Pyrazolyl-pyrimidones inhibit the function of human solute carrier protein SLC11A2 (hDMT1) by metal chelation” (RSC Medicinal Chemistry, 2020)
